# The supplement of paper PMC10307832
# Legend:
# Experiment in all cases: relative viability (nuclei count vs DMSO), 5 days (fraction); higher = more cells survive
# HCC-78 = test system: HCC-78
# How it was run: (§1)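 Lung cancer cell lines, seeded in 1536-well plates, were treated the following day by pin tool with a single drug or with five library-drug doses (not always all listed) in √10 steps on top of a fixed anchor-drug dose. Cells were fixed and nuclei stained in one step after 5 days, and nuclei were counted. Relative viability is the nuclei count for treated wells divided by that for vehicle wells, reported as medians of duplicate plates.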
# NCI-H647 = test system: NCI-H647
# How it was run: as §1
# ChaGo-K-1 = test system: ChaGo-K-1
# How it was run: as §1
# HCC-827 = test system: HCC-827
# How it was run: as §1
# EPLC-272H = test system: EPLC-272H
# How it was run: as §1
# NCI-H2405 = test system: NCI-H2405
# How it was run: as §1
# NCI-H2087 = test system: NCI-H2087
# How it was run: as §1
# NCI-H322M = test system: NCI-H322M
# How it was run: as §1
# NCI-H520 = test system: NCI-H520
# How it was run: as §1
# NCI-H1666 = test system: NCI-H1666
# How it was run: as §1
# NCI-H2347 = test system: NCI-H2347
# How it was run: as §1
# RERF-LC-KJ = test system: RERF-LC-KJ
# How it was run: as §1
# NCI-H1915 = test system: NCI-H1915
# How it was run: as §1
# NCI-H23 = test system: NCI-H23
# How it was run: as §1
# LC-2-ad = test system: LC-2-ad
# How it was run: as §1
# NCI-H2126 = test system: NCI-H2126
# How it was run: as §1
# LCLC-97TM1 = test system: LCLC-97TM1
# How it was run: as §1
# COR-L 105 = test system: COR-L 105
# How it was run: as §1
# H3255 = test system: H3255
# How it was run: as §1
# PC-14 = test system: PC-14
# How it was run: as §1
# 201T = test system: 201T
# How it was run: as §1
smiles,measurement,setting,value
Clc1ccc(Nc2nnc(Cc3ccncc3)c3ccccc23)cc1 [Vatalanib] + CC1(C)CCC(c2ccc(Cl)cc2)=C(CN2CCN(c3ccc(C(=O)NS(=O)(=O)c4ccc(N[C@H](CCN5CCOCC5)CSc5ccccc5)c(S(=O)(=O)C(F)(F)F)c4)cc3)CC2)C1 [Navitoclax] (partner 0.5 µM),relative viability,HCC-78; first compound 0.04 µM,0.714
same,relative viability,HCC-78; first compound 0.1265 µM,0.76
same,relative viability,HCC-78; first compound 0.4 µM,0.888
same,relative viability,HCC-78; first compound 4 µM,0.72
same,relative viability,NCI-H647; first compound 0.04 µM,1.08
same,relative viability,NCI-H647; first compound 0.1265 µM,1.01
same,relative viability,NCI-H647; first compound 1.265 µM,1.05
same,relative viability,NCI-H647; first compound 4 µM,0.957
same,relative viability,ChaGo-K-1; first compound 0.04 µM,0.565
same,relative viability,ChaGo-K-1; first compound 0.1265 µM,0.94
same,relative viability,ChaGo-K-1; first compound 1.265 µM,0.934
same,relative viability,ChaGo-K-1; first compound 4 µM,1.16
same,relative viability,HCC-827; first compound 0.04 µM,1.01
same,relative viability,HCC-827; first compound 0.1265 µM,0.982
same,relative viability,HCC-827; first compound 0.4 µM,1.06
same,relative viability,HCC-827; first compound 1.265 µM,0.994
same,relative viability,HCC-827; first compound 4 µM,0.97
same,relative viability,EPLC-272H; first compound 0.04 µM,1.08
same,relative viability,EPLC-272H; first compound 0.1265 µM,1.04
same,relative viability,EPLC-272H; first compound 0.4 µM,1.05
same,relative viability,EPLC-272H; first compound 1.265 µM,1.05
same,relative viability,EPLC-272H; first compound 4 µM,1.13
same,relative viability,NCI-H2405; first compound 0.04 µM,0.856
same,relative viability,NCI-H2405; first compound 0.1265 µM,0.726
same,relative viability,NCI-H2405; first compound 1.265 µM,0.728
same,relative viability,NCI-H2405; first compound 4 µM,0.713
same,relative viability,NCI-H2087; first compound 0.04 µM,1.11
same,relative viability,NCI-H2087; first compound 0.1265 µM,1.09
same,relative viability,NCI-H2087; first compound 0.4 µM,1.07
same,relative viability,NCI-H2087; first compound 1.265 µM,0.994
same,relative viability,NCI-H2087; first compound 4 µM,0.964
same,relative viability,NCI-H322M; first compound 0.04 µM,1.22
same,relative viability,NCI-H322M; first compound 0.1265 µM,1.21
same,relative viability,NCI-H322M; first compound 0.4 µM,1.27
same,relative viability,NCI-H322M; first compound 1.265 µM,1.14
same,relative viability,NCI-H322M; first compound 4 µM,1.09
same,relative viability,NCI-H520; first compound 0.04 µM,0.974
same,relative viability,NCI-H520; first compound 0.1265 µM,1.02
same,relative viability,NCI-H520; first compound 0.4 µM,1.1
same,relative viability,NCI-H520; first compound 1.265 µM,0.907
same,relative viability,NCI-H520; first compound 4 µM,1.06
same,relative viability,NCI-H1666; first compound 0.04 µM,0.958
same,relative viability,NCI-H1666; first compound 0.1265 µM,0.93
same,relative viability,NCI-H1666; first compound 0.4 µM,0.829
same,relative viability,NCI-H1666; first compound 1.265 µM,0.963
same,relative viability,NCI-H1666; first compound 4 µM,0.845
same,relative viability,NCI-H2347; first compound 0.04 µM,0.861
same,relative viability,NCI-H2347; first compound 0.1265 µM,0.78
same,relative viability,NCI-H2347; first compound 0.4 µM,0.885
same,relative viability,NCI-H2347; first compound 1.265 µM,0.739
same,relative viability,NCI-H2347; first compound 4 µM,0.796
same,relative viability,RERF-LC-KJ; first compound 0.04 µM,1.1
same,relative viability,RERF-LC-KJ; first compound 0.1265 µM,0.959
same,relative viability,RERF-LC-KJ; first compound 0.4 µM,0.951
same,relative viability,RERF-LC-KJ; first compound 1.265 µM,0.79
same,relative viability,RERF-LC-KJ; first compound 4 µM,0.822
same,relative viability,NCI-H1915; first compound 0.04 µM,0.805
same,relative viability,NCI-H1915; first compound 0.1265 µM,0.796
same,relative viability,NCI-H1915; first compound 0.4 µM,0.771
same,relative viability,NCI-H1915; first compound 1.265 µM,0.794
same,relative viability,NCI-H1915; first compound 4 µM,0.779
same,relative viability,NCI-H23; first compound 0.04 µM,0.772
same,relative viability,NCI-H23; first compound 0.1265 µM,0.699
same,relative viability,NCI-H23; first compound 0.4 µM,0.841
same,relative viability,NCI-H23; first compound 1.265 µM,0.745
same,relative viability,NCI-H23; first compound 4 µM,0.825
same,relative viability,LC-2-ad; first compound 0.04 µM,0.415
same,relative viability,LC-2-ad; first compound 0.1265 µM,0.456
same,relative viability,LC-2-ad; first compound 0.4 µM,0.558
same,relative viability,LC-2-ad; first compound 1.265 µM,0.412
same,relative viability,LC-2-ad; first compound 4 µM,0.529
same,relative viability,NCI-H2126; first compound 0.04 µM,0.834
same,relative viability,NCI-H2126; first compound 0.1265 µM,0.914
same,relative viability,NCI-H2126; first compound 0.4 µM,0.851
same,relative viability,NCI-H2126; first compound 1.265 µM,0.801
same,relative viability,NCI-H2126; first compound 4 µM,0.76
same,relative viability,LCLC-97TM1; first compound 0.04 µM,0.631
same,relative viability,LCLC-97TM1; first compound 0.1265 µM,0.511
same,relative viability,LCLC-97TM1; first compound 0.4 µM,0.488
same,relative viability,LCLC-97TM1; first compound 1.265 µM,0.401
same,relative viability,LCLC-97TM1; first compound 4 µM,0.38
same,relative viability,COR-L 105; first compound 0.04 µM,1.47
same,relative viability,COR-L 105; first compound 0.1265 µM,0.928
same,relative viability,COR-L 105; first compound 0.4 µM,0.692
same,relative viability,COR-L 105; first compound 1.265 µM,0.766
same,relative viability,COR-L 105; first compound 4 µM,0.715
same,relative viability,H3255; first compound 0.04 µM,0.608
same,relative viability,H3255; first compound 0.1265 µM,0.469
same,relative viability,H3255; first compound 0.4 µM,0.458
same,relative viability,H3255; first compound 1.265 µM,0.444
same,relative viability,H3255; first compound 4 µM,0.521
same,relative viability,PC-14; first compound 0.04 µM,1.04
same,relative viability,PC-14; first compound 0.1265 µM,0.941
same,relative viability,PC-14; first compound 0.4 µM,1.07
same,relative viability,PC-14; first compound 1.265 µM,1.03
same,relative viability,PC-14; first compound 4 µM,0.997
same,relative viability,201T; first compound 0.04 µM,1.17
same,relative viability,201T; first compound 0.1265 µM,1.27
same,relative viability,201T; first compound 0.4 µM,1.25
same,relative viability,201T; first compound 1.265 µM,1.25
same,relative viability,201T; first compound 4 µM,1.21
